Test results: ChEMBL document CHEMBL1130302, “1-Arylsulfonyl-3-(-hydroxybenzyl)-1H-pyrroles, a novel class of anti-HIV-1 reverse transcriptase inhibitors” (Bioorg Med Chem Lett, 1997)

What was measured:
[1] = test system: Human immunodeficiency virus 1; experiment: Concentration required to achieve 50% protection of MT-4 cells against the cytopathic effect of HIV-1; format: functional, organism-based; settings: Human immunodeficiency virus 1, MT4
MT4 = experiment: Concentration required to reduce the viability of mock-infected MT-4 cells by 50%; format: functional; settings: Homo sapiens
[2] = Selectivity index reported as ratio of CC50 to EC50; format: functional
[3] = molecular target: Human immunodeficiency virus type 1 reverse transcriptase (Human immunodeficiency virus 1, UniProt Q72547); experiment: Inhibition of HIV-1 recombinant reverse transcriptase

Compound	EC50 [1]	CC50 (MT4)	Ratio [2]	IC50 [3]	SI [2]
O=S(=O)(c1ccccc1)n1ccc(C(O)c2ccc(Cl)cc2)c1 (stereo not given)	9 µM	66 µM	7	–	–
Cc1ccnc2c1NC(=O)c1cccnc1N2C1CC1 [NEVIRAPINE]	–	> 200 µM	–	–	–
CCOP(=O)(OCC)OP(=O)(OCC)OCC [ETHYL PYROPHOSPHATE]	7 µM	740 µM	106	–	–
O=S(=O)(c1ccccc1)n1ccc(C(O)c2ccccc2)c1 (stereo not given)	8 µM	124 µM	15	–	–
O=C(c1ccc(Cl)cc1)c1ccn(S(=O)(=O)c2ccccc2)c1	> 26 µM	26 µM	–	–	–
Cc1cn([C@H]2C[C@H](N=[N+]=[N-])[C@@H](CO)O2)c(=O)[nH]c1=O [ZIDOVUDINE]	0.01 µM	> 20 µM	–	–	–
O=[N+]([O-])c1ccc(S(=O)(=O)n2ccc(C(O)c3ccc(Cl)cc3Cl)c2)cc1 (stereo not given)	22 µM	50 µM	2.2	–	–
Cc1ccc(C(O)c2ccn(S(=O)(=O)c3ccccc3)c2)cc1 (stereo not given)	15 µM	122 µM	8	–	–
Cc1ccccc1S(=O)(=O)n1ccc(C(O)c2ccc(Cl)cc2Cl)c1 (stereo not given)	1.7 µM	> 200 µM	> 117	27 µM	–
O=S(=O)(c1ccccc1)n1ccc(C(O)c2ccccc2Cl)c1 (stereo not given)	4.1 µM	113 µM	27.5	29.5 µM	–
Cc1ccc(C(O)c2ccn(S(=O)(=O)c3ccc(C)cc3)c2)cc1 (stereo not given)	7.3 µM	96 µM	13	4.7 µM	–
O=S(=O)(c1ccc(Cl)cc1)n1ccc(C(O)c2ccc(Cl)cc2Cl)c1 (stereo not given)	4.4 µM	96 µM	21.8	17 µM	–
O=C(c1ccn(S(=O)(=O)c2ccccc2)c1)c1ccc(Cl)cc1Cl	> 30 µM	30 µM	–	–	–
Nc1ccc(Cl)cc1S(=O)(=O)n1ccc(C(O)c2ccccc2)c1 (stereo not given)	3.2 µM	109 µM	34	> 30 µM	–
Cc1ccc(S(=O)(=O)n2cc(C(O)c3ccc(Cl)cc3Cl)cc2C(=O)OC(C)C)cc1 (stereo not given)	22 µM	32 µM	1.4	–	–
CCOC(=O)c1cc(C(O)c2ccc(Cl)cc2Cl)cn1S(=O)(=O)c1cc(Cl)ccc1[N+](=O)[O-] (stereo not given)	> 14 µM	14 µM	–	–	–
O=S(=O)(c1ccccc1)n1ccc(C(O)c2ccc(Cl)cc2Cl)c1 (stereo not given)	5 µM	57 µM	11	> 30 µM	–
CC(C)c1ccc(S(=O)(=O)n2ccc(C(O)c3ccc(Cl)cc3Cl)c2)cc1 (stereo not given)	1.8 µM	51 µM	28	2.5 µM	–
Nc1ccc(S(=O)(=O)n2ccc(C(O)c3ccc(Cl)cc3Cl)c2)cc1 (stereo not given)	11 µM	74 µM	6.7	–	–

Compound	EC50 [1]	CC50 (MT4)	Ratio [2]	IC50 [3]	SI [2]
Cc1ccc(S(=O)(=O)n2ccc(C(O)c3ccc(Cl)cc3Cl)c2)c(C)c1 (stereo not given)	0.3 µM	60 µM	200	< 1.1 µM	–
CCOC(=O)c1cc(C(O)c2ccc(Cl)cc2Cl)cn1S(=O)(=O)c1cc(Cl)ccc1N (stereo not given)	16 µM	29 µM	1.8	–	–
Cc1ccc(C(c2ccn(S(=O)(=O)c3ccccc3)c2)n2ccnc2)cc1 (stereo not given)	> 26 µM	26 µM	–	–	–
CC(C)OC(=O)c1cc(C(O)c2ccc(Cl)cc2Cl)cn1S(=O)(=O)c1ccc(Cl)cc1 (stereo not given)	> 28 µM	28 µM	–	–	–
O=S(=O)(c1ccccc1)n1ccc(C(c2ccccc2)n2ccnc2)c1 (stereo not given)	> 25 µM	25 µM	–	–	–
O=S(=O)(c1ccccc1)n1ccc(C(c2ccc(Cl)cc2)n2ccnc2)c1 (stereo not given)	> 22 µM	22 µM	–	–	–
O=C(c1ccccc1)c1ccn(S(=O)(=O)c2ccccc2)c1	> 32 µM	32 µM	–	–	–
Cc1ccc(C(=O)c2ccn(S(=O)(=O)c3ccccc3)c2)cc1	> 30 µM	30 µM	–	–	–
COc1ccc(C(O)c2ccn(S(=O)(=O)c3ccc(C)cc3)c2)cc1 (stereo not given)	15.7 µM	> 200 µM	> 12	–	–
CC(O)c1ccn(S(=O)(=O)c2cc(Cl)ccc2N)c1 (stereo not given)	> 95 µM	95 µM	–	–	–
CCc1ccc(S(=O)(=O)n2ccc(C(O)c3ccc(Cl)cc3Cl)c2)cc1 (stereo not given)	1.5 µM	71 µM	47	22 µM	–
CCOC(=O)c1cc(C(O)c2ccc(Cl)cc2Cl)cn1S(=O)(=O)c1ccc(C)cc1 (stereo not given)	14 µM	36 µM	2.6	–	–
CC(C)(C)c1ccc(S(=O)(=O)n2ccc(C(O)c3ccc(Cl)cc3Cl)c2)cc1 (stereo not given)	2.5 µM	62 µM	–	6.4 µM	24
O=S(=O)(c1ccccc1)n1ccc(C(c2ccc(Cl)cc2Cl)n2ccnc2)c1 (stereo not given)	> 14 µM	14 µM	–	–	–
COC(c1ccn(S(=O)(=O)c2ccc(C)cc2)c1)c1ccc(Cl)cc1Cl (stereo not given)	> 82 µM	82 µM	–	–	–
O=S(=O)(c1ccccc1)n1ccc(C(O)c2ccccc2F)c1 (stereo not given)	9.1 µM	> 200 µM	> 22	–	–
CC(=O)OC(c1ccn(S(=O)(=O)c2ccc(C)cc2)c1)c1ccc(Cl)cc1Cl (stereo not given)	9.8 µM	100 µM	10	–	–
Cc1ccc(S(=O)(=O)n2ccc(C(O)c3ccc(Cl)cc3Cl)c2)cc1 (stereo not given)	0.3 µM	61 µM	203	18 µM	–
O=S(=O)(c1ccccc1)n1ccc(C(O)c2c(F)cccc2F)c1 (stereo not given)	48 µM	100 µM	2	–	–
